Laboratory results published in US12508328B2, “Bio-activated reporters to visualize, in real time, specific gene therapy products” (Northwestern University, priority 2019, dated 2025).
Where two headings read alike, the source gives them in different places.

Experiments:
[1] = cited from earlier work; for link to nephrogenic systemic fibrosis (NSF): clinical use
[2] = Terbium(III) luminescence: determination of q; format: physicochemical; conditions: 10a′-d′, Horrock's equation; MOPS/CO3^2− buffer pH 7.4
Procedure: The q number in the absence and presence of CO32− was determined using TbIII analogues (5a′, 5b′, 5c′, and 11′). Given the similarities in chemistry amongst the lanthanides, TbIII luminescence is a convenient and established method for determining the coordination environment in corresponding GdIII chelates. The narrow […] emission at 543 nm and the relatively long lived 0.4 ms excited state lifetime for Tb(H2O)x facilitates accurate assessment of the inner-coordination sphere, differentiating between coordination of OH, OD, NH, and ND oscillators. 38 Luminescent decay curves were fit to the empirically derived Horrock's equation (Eq. 2). It was expected that the ortho position would have the lowest q in the presence of CO32−, creating a “dark” state with the lowest relaxivity.
The number of water molecules directly coordinated to the lanthanide center (q), was determined for each of the TbIII analogues 5a′-c′ (see Table 1), 10a′-d′ (Table 2), and 11′ in MilliQ water and MOPS/carbonate buffer (10 mm MOPS, 24 mm NaHCO3, pH 7.4).
The monoexponential fluorescence decay of an ≈1 mm solution of each complex was determined using a Hitachi F4500 fluorometer (Schaumburg, IL). An excitation wavelength of 308 nm and an emission wavelength of […] were used, and 25 scans were acquired and averaged for each solution. The averaged data was fit with a monoexponential decay function, and the time constant (t) for each solution was determined in triplicate. The fluorescence decay curves of the complexes were measured in both H2O and D2O, and in both buffer and deuterated buffer, obtained by lyophilizing and re-suspending the buffer in D2O three times (FIG. 17A-E). The q values were calculated using the empirically derived Horrock's equation for Tb(III) (Eq. 2): […]

β-gal [3] = molecular target: T1, β-gal (Escherichia coli, UniProt P00722); conditions: for T1 signal in the presence of β-gal compared with cleaved agent 11: 24 h incubation
Procedure: MR images were acquired on a Bruker Pharmscan 7 T imaging spectrometer fitted with shielded gradient coils at 25° C. Image analysis was carried out using Paravision 5.0 p13 software (Bruker, Billerica, MA, USA) with monoexponential curve-fitting of image intensities of selected regions of interest (ROIs) for each axial slice. […] Exact Gd(III) concentration was verified by ICP-MS. Either 10 μL of enzyme stock solution (50% enzyme assay buffer, 50% glycerol, at 521 U/mL β-gal) or 10 μL of a 50% enzyme assay buffer/50% glycerol solution (used as a control) were added to a 190 μL aliquot of each complex. After this addition, the final concentration of each complex was 475 μM, with 26.1 U/mL of β-gal. The solutions were incubated at 37° C. for 24 hours, then aliquoted to 5, ¾″ flame-sealed Pasteur pipets. The bottom sections of the flame-sealed pipets were then scored with a glass scribe, broken into small capillaries, and imaged using a RF RES 300 1H 089/023 quadrature transmit receive 23 mm volume coil (Bruker BioSpin, Billerica, MA, USA). T1 relaxation times were measured using a rapid-acquisition rapid-echo RARE-VTR T1-map pulse sequence with the following imaging parameters: TE (11.0 ms), TR (500.0 ms), field of view (FOV)=25×25 mm2, matrix size (MTX)=256×256, number of axial slices=5, slice thickness (SI)=1.0 mm, and averages (NEX)=3, and total scan time was 2:36:57. T2 values were measured using a multislice multiecho (MSME) T2-map pulse sequence, with static TR (5000 ms) and 32 fitted echoes in 11 ms intervals (11, 22, . . . , 352 ms). Imaging parameters were as follows: FOV=25×25 mm2, MTX=256×256, number of axial slices=4, SI=1.0 mm, NEX=3, and a total scan time=48 min. T1 images and times can be found in FIG. 14 and T2 maps and times can be found in FIG. 18.

β-gal enzyme (lacZ) = conditions: for MR signal enhancement in lacZ-expressing mice, 1 h post injection: 9.4 T T1 weighted FLASH
Procedure: In vivo MR Imaging (9.4 T) Hemizygous transgenic mice (n=2) constitutively expressing the lacZ gene that encodes the β-gal enzyme (strain ROSA26-lacZ) were purchased from The Jackson Laboratory (Bar Harbor, ME). A non-transgenic littermate was used as a control. […] Mice were imaged with MRI at baseline, and 1, 4, and 24 hours post injection.
MRI was performed on a 9.4T Bruker Biospec MRI system with a 30 cm bore, a 12 cm gradient insert, and an Autopac automated sample positioning system (Bruker Biospin Inc, Billerica, MA). Animals were anesthetized in an induction chamber with 3% isoflurane and transferred to a dedicated imaging bed with isoflurane delivered via nosecone at 1-2%. Respiratory signals were monitored using an MR-compatible physiologic monitoring system (SA Instruments, Stonybrook, NY) and a warm water circulating system was used to maintain body temperature. Animals were placed in the prone position and a quadrature radiofrequency coil with inner diameter 40 mm was mounted on the bed. Mice were imaged using a FLASH gradient echo sequence using the following parameters: TR/TE/α=100 ms/2.2 ms/45°, MTX=192×192, FOV 4×4 cm, 9 slices of 1 mm thick, 0.3 mm slice gap, and 1 signal average.

[4] = Complex stability measured by relaxivity (T1); format: physicochemical; conditions: for change in T1 over time (stability): 1 mM in enzyme buffer pH 7.3, over 140 hours; for change in T1 over time (stability) in cell culture media: over 140 hours
β-gal [5] = molecular target: T1, β-gal; conditions: dark to bright
Description: The acetate arm is attached to an amine present in the linker between the macrocycle and the galactopyranose substrate.

[6] = Relaxivity (1.4 T) in MOPS and MOPS/CO3^2−; format: physicochemical; conditions: for Δr1 relative to the cleaved control product 11: intramolecular series 10a-d, 37° C.
Procedure: While measurements of q indicate how well an agent can restrict water access to the GdIII center, the most important property for a bio-activated contrast agent is the change in relaxivity upon enzymatic cleavage (r1). To evaluate the signal change in the presence of CO32−, relaxivities of the intermolecular activated agents were measured in two different buffer conditions, the non-coordinating buffer MOPS and MOPS/CO32−.
T1 relaxation times were obtained for 5a-c (FIG. 13), and complexes 10a-d (FIG. 14), and 11 at 37° C. at 60 MHz (1.4 T) on a Bruker mq60 minispec spectrometer (Billerica, MA). Three 1 mM solutions of each complex were prepared in four different buffer conditions 1) 10 mm 3-(N-morpholino)propanesulfonic acid (MOPS), 100 mm NaCl, pH 7.4, 2) 10 mm MOPS, 24 mm NaHCO3, 100 mm NaCl, pH 7.4, 3) Dulbecco's Phosphate Buffer (DPBS) pH 7.3 Life Technologies, and 4) b-galactosidase enzyme assay buffer, 200 mm sodium phosphate, 100 mm bmercaptoethanol, 2 mm MgCl2, pH 7.3 (FIG. 15). Three sets of five serial dilutions (about 1 mm, 0.5 mm, 0.25 mm, 0.125 mm and 0.0625 mm) were prepared for each complex. T1 relaxation rates were measured using an inversion recovery pule sequence (t1_ir_mb) with a 10 ms first pulse separation, recycle delay and final pulse separation ≥5 T1. T1 relaxation rates were plotted as a function of GdIII concentrations as determined by ICP-MS, r1/r2 was obtained from linear fit of concentration vs. T1 as described in Equation (1).

[7] = cited from earlier work
[8] = IP 200 microliters of 40 mM, 9.4 T
[9] = intravenous, two-compartment open-model

CNC(=O)CN(CCN(CCN(CC(=O)[O-])CC(=O)NC)CC(=O)[O-])CC(=O)[O-].[Gd+3] [Omniscan]
link to nephrogenic systemic fibrosis (NSF) [1]: associated with the onset of NSF

CCOC(=O)CCCCCNc1cc(COC(=O)NCCN2CCN(CC(=O)[O-])CCN(CC(=O)[O-])CCN(CC(=O)[O-])CC2)ccc1O[C@@H]1O[C@H](CO)[C@H](O)[C@H](O)[C@H]1O.[Gd+3] [10c, Gadolinium(III)-1-(4-(2-(1-(4,7,10-triscarboxymethyl-(1,4,7,10tetraazacyclododecyl)))ethylcarbamoyloxymethyl)-2-((6-ethoxy-6-oxohexyl)amino)phenyl)-β-D-galactopyranose]
q (buffer) [2]: 0.1 | T1 signal in the presence of β-gal compared with cleaved agent 11 (β-gal [3]; 7 T solution phantoms): approximately the same | change in relaxivity (β-gal [3]; at both 1.4 and 7 T): positive | MR signal enhancement in lacZ-expressing mice, 4 hrs post injection (β-gal enzyme (lacZ); [8]): signal enhancement was present but at a reduced level | MR signal enhancement in non-transgenic control mice (β-gal enzyme (lacZ); [8]): No signal enhancement was observed | MR signal enhancement in lacZ-expressing mice, 1 h post injection (β-gal enzyme (lacZ); IP 200 microliters of 40 mM): Global signal enhancement was observed | MR signal enhancement in lacZ-expressing mice, 1 h post injection (β-gal enzyme (lacZ); IP 200 microliters of 40 mM, listed as complex 3): Global signal enhancement was observed | MR signal enhancement in lacZ-expressing mice, 1 h post injection (β-gal enzyme (lacZ); IP 200 microliters of 40 mM, listed as β-galactosidase responsive agent): Signal enhancement was noted in the liver and kidneys | MR signal enhancement in non-transgenic control mice (β-gal enzyme (lacZ); IP 200 microliters of 40 mM, 9.4 T, listed as complex 3): No signal enhancement was observed | MR signal enhancement in non-transgenic control mice (β-gal enzyme (lacZ); IP 200 microliters of 40 mM, 9.4 T, listed as β-galactosidase responsive agent): minimal | time for MR signal to return to baseline (β-gal enzyme (lacZ); LacZ mice, IP injection): ≤ 24 h | route of clearance (β-gal enzyme (lacZ); bladder very bright at 4 hour time point in one LacZ mouse): cleared renally | change in T1 over time (stability) [4]: No significant change in T1 | change in T1 over time (stability) in cell culture media [4]: No significant change in T1 | change in relaxivity when exposed to β-gal (post enzyme cleavage) (β-gal [5]): 90% | change in signal in the presence of CO3^2− ([6]; 10a-d, MOPS/CO3^2−): highest overall change in signal | Δr1 relative to the cleaved control product 11 [6]: 20%

CNC[C@H](O)[C@@H](O)[C@H](O)[C@H](O)CO.CNC[C@H](O)[C@@H](O)[C@H](O)[C@H](O)CO.O=C([O-])CN(CCN(CC(=O)[O-])CC(=O)O)CCN(CC(=O)[O-])CC(=O)O.[Gd+3] [Magnevist, gadopentate dimeglumine]
link to nephrogenic systemic fibrosis (NSF) [1]: associated with the onset of NSF | dose shown to enhance after intrathecal contrast delivery ([1]; intrathecal): 0.004 mmol/kg | safe dose in preclinical safety studies ([1]; intravenous delivery): 50 × the normal dose | volume of distribution ([7]; equal to the extracellular space): ~0.266 L/kg | binding to human serum protein ([7]; in vivo): has not been shown to bind | distribution half-life [7, 9]: 12 min | elimination half-life [7, 9]: 96 min | dose excreted in the urine by 24 hours ([7]; intravenous): 91% | dose excreted in the urine within 6 hours ([7]; intravenous): ~83%

CCOC(=O)CCCCCCCNc1cc(COC(=O)NCCN2CCN(CC(=O)[O-])CCN(CC(=O)[O-])CCN(CC(=O)[O-])CC2)ccc1O[C@@H]1O[C@H](CO)[C@H](O)[C@H](O)[C@H]1O.[Gd+3] [10d, Gadolinium(III)-1-(4-(2-(1-(4,7,10-triscarboxymethyl-(1,4,7,10tetraazacyclododecyl)))ethylcarbamoyloxymethyl)-2-((8-ethoxy-8-oxooctyl)amino)phenyl)-β-D-galactopyranose]
T1 signal in the presence of β-gal compared with cleaved agent 11 (β-gal [3]; 7 T solution phantoms): approximately the same | change in T1 over time (stability) [4]: No significant change in T1 | change in T1 over time (stability) in cell culture media [4]: No significant change in T1 | Δr1 relative to the cleaved control product 11 [6]: negative

CCOC(=O)CCCNc1cc(COC(=O)NCCN2CCN(CC(=O)[O-])CCN(CC(=O)[O-])CCN(CC(=O)[O-])CC2)ccc1O[C@@H]1O[C@H](CO)[C@H](O)[C@H](O)[C@H]1O.[Gd+3] [10b, Gadolinium(III)-1-(4-(2-(1-(4,7,10-triscarboxymethyl-(1,4,7,10tetraazacyclododecyl)))ethylcarbamoyloxymethyl)-2-((4-ethoxy-4-oxobutyl)amino)phenyl)-β-D-galactopyranose]
change in MR contrast +/−β-gal (β-gal [3]; 7 T T1 solution phantoms): greatest change in MR contrast | T1 signal in the presence of β-gal compared with cleaved agent 11 (β-gal [3]; 7 T solution phantoms): does not appear to fully activate | T1 (β-gal [3]; 7 T solution phantoms, assay buffer, 24 h, +β-gal 26.1 U/mL): 378 ms | change in T1 over time (stability) [4]: No significant change in T1 | Δr1 in MOPS ([6]; 10a-d, MOPS): largest | Δr1 relative to the cleaved control product 11 [6]: positive

CCOC(=O)CNc1cc(COC(=O)NCCN2CCN(CC(=O)[O-])CCN(CC(=O)[O-])CCN(CC(=O)[O-])CC2)ccc1O[C@@H]1O[C@H](CO)[C@H](O)[C@H](O)[C@H]1O.[Gd+3] [10a, Gadolinium(III)-1-(4-(2-(1-(4,7,10-triscarboxymethyl-(1,4,7,10tetraazacyclododecyl)))ethylcarbamoyloxymethyl)-2-((2-ethoxy-2-oxoethyl)amino)phenyl)-β-D-galactopyranose]
change in T1 over time (stability) [4]: No significant change in T1 | relaxivity within the intramolecular series ([6]; 10a-d): highest relativity of the series | Δr1 relative to the cleaved control product 11 [6]: negative
